This assay addresses T1, recombinant CYP-21 (Homo sapiens, UniProt P08686).
T1 construct: expressed in transfected cells; host or cells: AD293
T1 sequence (P08686 1-495): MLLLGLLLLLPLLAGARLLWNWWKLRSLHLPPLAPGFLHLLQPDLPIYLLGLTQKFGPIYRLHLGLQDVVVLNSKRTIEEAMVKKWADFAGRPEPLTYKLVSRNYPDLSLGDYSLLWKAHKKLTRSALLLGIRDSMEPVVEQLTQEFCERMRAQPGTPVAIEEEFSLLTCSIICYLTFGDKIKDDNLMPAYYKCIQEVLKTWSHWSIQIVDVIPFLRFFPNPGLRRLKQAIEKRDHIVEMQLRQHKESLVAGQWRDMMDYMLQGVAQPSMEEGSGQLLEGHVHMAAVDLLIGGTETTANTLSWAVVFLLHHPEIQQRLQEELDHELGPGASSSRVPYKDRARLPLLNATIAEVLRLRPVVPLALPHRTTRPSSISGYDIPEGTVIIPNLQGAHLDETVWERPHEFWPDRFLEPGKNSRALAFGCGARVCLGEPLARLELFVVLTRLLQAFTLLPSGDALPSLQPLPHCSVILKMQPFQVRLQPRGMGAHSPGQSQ
Description: Cyp21 assay: AD293 cells over-expressing recombinant CYP-21, 11-deoxycortisol formation from 17α-OH Progesterone by LC/MS. The assay is classed as cell-based. On the procedure: Cyp21 assay protocol: AD293 cells that stably over-express recombinant CYP-21 were seeded in 96 well plates coated with poly D-lysine (10,000 cell per well) and incubated at 37° C. for 24 hours in Dulbecco's Modified Eagle Medium (DMEM) with Fetal Bovine Serum (FBS) that is stripped of hormones by charcoal treatment. The media is then removed, the cells are washed once with Phosphate buffer saline solution, and 50 μL Dulbecco's Modified Eagle Medium (DMEM) with Fetal Bovine Serum (FBS) that is stripped of hormones by charcoal treatment is added. Compounds of the disclosure are then added to the wells in eight concentration spanning 10 μM to 4.5 nM, and the plates are incubated for an additional 60 minutes at 37° C. 17α-OH Progesterone is then added (1.0 μM) and the plates are incubated for an additional 45 minutes at 37° C. After incubation, 50 uL of the supernatant (medium) is transferred into a fresh plate and 150 uL of an acetonitrile solution containing 200 ng/ml of Telmisartan is added. The sample is mixed and then placed in a centrifuge at 2000 rpm for 5 minutes. 100 uL of the supernatant is transferred into a fresh 96 well deep well plate, 100 uL of 1:1 methanol:water was added, the solution was mixed and then analyzed by LC/MS for the presence of 11-deoxycortisol using an Agilent 1200 RRLC/ABSCIEX API4000 LC-MS or Shimadzu Prominance/ABSCIEX API4000 LC-MS to determine IC5os of the compounds of the disclosure.

IC50 data for one molecule are collected here from patent US20160244436A1, “NOVEL FUNCTIONALIZED 5-(PHENOXYMETHYL)-1,3-DIOXANE ANALOGS EXHIBITING CYTOCHROME P450 INHIBITION AND THEIR METHOD OF USE” (CORTENDO AB (PUBL), priority 2013, published 2016).

In general, IC50 refers to the concentration that gives 50% inhibition.

`CC(=O)N1CCN(c2ccc(CO[C@H]3CO[C@](Cn4ccnc4)(c4ccc(Cl)cc4Cl)OC3)cc2)CC1` [drawing 112]: the IC50 stood at 208 nM.
